Test results published in US20260165949A1, “COMPOSITION CONTAINING N-NONYLDEOXYNOJIRIMYCIN FOR SUPPRESSION, ALLEVIATION, PALLIATION, OR TREATMENT OF SKIN ITCHING” (CHA UNIVERSITY INDUSTRY-ACADEMIC COOPERATION FOUNDATION, priority 2022, published 2026).

Assays:
glucosidase = conditions: cited from earlier work
[1] = system: PGE2 release in RBL-2H3 cells; assay: PGE2 release induced by PMA/A23187 stimulation in RBL-2H3 cells (ELISA); assay type: cell-based; conditions: 1 to 40 μM; 50 nM PMA and 1 μM A23187 for 30 minutes; FIG. 3
Experimental: (§1) Mast cells (RBL-2H3 cells) were purchased from ATCC (American Type Culture Collection, USA). RBL-2H3 cells were cultured in a DMEM medium (Dulbecco's Modified Eagle's medium (high glucose), Hyclone, USA) containing 10% fetal bovine serum (FBS) and 1% penicillin/streptomycin at 37° C. in a 5% CO2 incubator.
In order to evaluate the inhibitory effects against […] (PGE2) release of RBL-2H3 cells according to the treatment of N-nonyldeoxynojirimycin, an enzyme-linked immunosorbent assay (ELISA) was performed using a PGE2 ELISA kit (R&D Systems, USA). Specifically, the cultured RBL-2H3 cells were seeded at 1×10^6 cells/well in each well of a 6-well plate for cell culture and cultured in the same manner as in Example 2. After 24 hours, the existing medium was removed. The cells were washed with PBS and a DMEM medium without FBS was added thereto. After N-nonyldeoxynojirimycin was treated at various concentrations (1 to 40 μM), the cells were cultured for 1 hour at 37° C. in a 5% CO2 incubator. The cells were treated with 50 nM of PMA and 1 μM of A23187 and incubated for an additional 30 minutes. The cell culture mixture was collected in a 1.5 ml tube and then centrifuged at 2,000 rcf. The supernatant thereof was subject to the ELISA analysis using a PGE2 ELISA kit (R&D Systems, USA). After completion of the reaction, the absorbance was measured at 450 nm using a microplate reader.

[2] = system: CCL22 release in HaCaT cells; assay: CCL22 release induced by TNF-α/IFN-γ stimulation in HaCaT cells (ELISA); assay type: cell-based; conditions: various concentrations; TNF-α and IFN-γ 10 ng/ml each, 24 hours; FIG. 6
Experimental: (§2) Epidermal cells (HaCaT cells) were purchased from Thermo Fisher Scientific (USA). HaCaT cells were cultured in a DMEM medium (Dulbecco's Modified Eagle's medium (high glucose), Hyclone, USA) containing 10% fetal bovine serum (FBS) and 1% penicillin/streptomycin at 37° C. in a 5% CO2 incubator.
(§3) In order to evaluate the inhibitory effects against IL-6, CCL17, and CCL22 release induced by TNF-α and IFN-γ stimulation in HaCaT cells, an epidermal cell model for the itching associated with the skin barrier, we used a IL-6 ELISA kit (Abcam, UK), a CCL17 ELISA kit (R&D Systems, USA), and a CCL22 ELISA kit (R&D Systems, USA). HaCaT cells were seeded at 1×10^6 cells/well in each well of a coated 6-well plate for cell culture and cultured in a DMEM medium containing 10% FBS and 1% antibiotics (penicillin/streptomycin). After 24 hours, the existing medium was removed. The cells were washed with PBS and a DMEM medium without FBS was added thereto. After N-nonyldeoxynojirimycin was treated at various concentrations, the cells were cultured for 1 hour at 37° C. in a 5% CO2 incubator. The cells were treated with TNF-α and IFN-γ at 10 ng/ml each and then incubated for an additional 24 hours. The cell culture mixture was collected in a 1.5 ml tube and then centrifuged at 2,000 rcf. […] After completion of the reaction, the absorbance was measured at 450 nm using a microplate reader. […]

[3] = system: IL-6 release in HaCaT cells; assay: IL-6 release induced by TNF-α/IFN-γ stimulation in HaCaT cells (ELISA); assay type: cell-based; conditions: various concentrations; TNF-α and IFN-γ 10 ng/ml each, 24 hours; FIG. 4
Experimental: as §2, §3

RBL-2H3 cells = assay: β-hexosaminidase release induced by PMA/A23187 stimulation (degranulation) in RBL-2H3 cells; assay type: cell-based
Experimental: as §1
In order to evaluate the inhibitory effects against degranulation of RBL-2H3 cells, β-hexosaminidase release was measured for various compounds. Specifically, the cultured RBL-2H3 cells were seeded at 2×10^5 cells/well in each well of a 24-well plate for cell culture and cultured in a DMEM medium containing 10% FBS and 1% penicillin/streptomycin. After 24 hours, the existing medium was removed. The cells were washed twice with an extracellular buffer (5 mM KCl, 119 mM NaCl, 25 mM PIPES, 0.4 mM MgCl2, 1 mM CaCl2), 40 mM NaOH, 5.6 mM glucose, 0.1% BSA, pH 7.2) and the medium was replaced with the extracellular buffer. […] After the reaction was terminated by adding a stop solution (0.1 M carbonate buffer, pH 10), the absorbance was measured at 405 nm using a microplate reader.
The β-hexosaminidase release was measured in the same manner as in Example 2, except that N-nonyldeoxynojirimycin was treated at various concentrations (1 to 200 μM).

[4] = system: CCL17 release in HaCaT cells; assay: CCL17 release induced by TNF-α/IFN-γ stimulation in HaCaT cells (ELISA); assay type: cell-based; conditions: various concentrations; TNF-α and IFN-γ 10 ng/ml each, 24 hours; FIG. 5
Experimental: as §2, §3

hepatic glycogenolysis = conditions: in vivo; cited from earlier work

## CCCCCCCCCN1C[C@H](O)[C@@H](O)[C@H](O)[C@H]1CO [N-nonyldeoxynojirimycin]
glucosidase
  glucosidase inhibitory activity: has a glucosidase inhibitory activity
[1]
  inhibitory effect against PGE2 release: inhibited the PGE2 release in a concentration-dependent manner
[2]
  inhibitory effect against CCL22 release: inhibited the IL-6, CCL17, and CCL22 releases
[3]
  inhibitory effect against IL-6 release: inhibited the IL-6, CCL17, and CCL22 releases
RBL-2H3 cells; 1 to 200 μM, PMA/A23187 stimulation, FIG. 2
  inhibitory effect against β-hexosaminidase release according to treatment concentration: inhibits the β-hexosaminidase release in a concentration-dependent manner
RBL-2H3 cells; test material 20 μM, 1 hour, then 50 nM PMA and 1 μM A23187 for 30 minutes, FIG. 1
  inhibitory effect against β-hexosaminidase release: remarkably inhibited the β-hexosaminidase release compared to other alkaloid analogues
[4]
  inhibitory effect against CCL17 release: inhibited the IL-6, CCL17, and CCL22 releases
Hepatic glycogenolysis
  inhibition of hepatic glycogenolysis: known to inhibit hepatic glycogenolysis in vivo
